Assay results published in patent US7569605B2, “Methods of treating central nervous system disorders with a low dose combination of escitalopram and bupropion” (Forest Laboratories Holdings Limited, priority 2005, dated 2009).

Tested on: patients with major depressive disorder (MDD)
Assay: double-blind fixed dose comparison in major depressive disorder: safety and tolerability
Assay type: in vivo, human
Settings: for Early Discontinuation: AEs / Early Discontinuation: All Reasons / Early Discontinuation: Insufficient Response / Incidence of TEAEs: Pts with at least 1 TEAE / Selected TEAEs: anorexia / Selected TEAEs: completed suicide* / Selected TEAEs: constipation / Selected TEAEs: decreased appetite / Selected TEAEs: diarrhea / Selected TEAEs: dizziness / Selected TEAEs: dry mouth / Selected TEAEs: early morn awakening / Selected TEAEs: ejaculation delayed / Selected TEAEs: erectile dysfunction / Selected TEAEs: hypersomnia / Selected TEAEs: increased appetite / Selected TEAEs: initial insomnia / Selected TEAEs: insomnia / Selected TEAEs: intentional self-injury / Selected TEAEs: lethargy / Selected TEAEs: libido decreased / Selected TEAEs: libido increased / Selected TEAEs: middle insomnia / Selected TEAEs: nausea / Selected TEAEs: orgasm abnormal / Selected TEAEs: sedation / Selected TEAEs: sleep disorder / Selected TEAEs: somnolence / Selected TEAEs: suicidal ideation / Selected TEAEs: vomiting / Selected TEAEs: weight decreased / Selected TEAEs: weight increased: number of patients (%), 8 weeks double-blind; for patients discontinued treatment early / patients exhibited at least one Treatment Emergent Adverse Event (TEAE): percent of patients, as given in the text
Protocol: The present study evaluates the efficacy, safety, and tolerability of escitalopram/bupropion combination treatment relative to its component monotherapies, and to placebo in patients with major depressive disorder (MDD).
The study consists of a one-week single-blind placebo lead-in period followed by an 8 week double-blind treatment period. Approximately 135 patients are randomized to each of four treatment groups (placebo, escitalopram oxalate 4 mg, bupropion hydrochloride 150 mg, or escitalopram oxalate 4 mg/bupropion hydrochloride 150 mg), for a total of […].
A randomized, double-blind, fixed-dose, multicenter, parallel-group study is conducted in outpatients with MDD. Patients who meet eligibility criteria at Screening (Visit 1) enter a one-week, single-blind, lead-in period of placebo treatment. Patients who complete the lead-in period and continue to meet all entry criteria at Baseline (Visit 2) are randomly assigned to 8 weeks of double-blind treatment with either placebo, escitalopram 4 mg, bupropion XL 150 mg, or escitalopram 4 mg/bupropion XL 150 mg combination. Assignment to a treatment group is according to a computer-generated randomization schedule.
Safety assessments are made of the patients by a physician at every visit and the evaluation documented. At each visit beginning with Visit 2, patients are queried regarding any adverse events (AEs) since the last visit. Study site personnel record all pertinent information in the electronic Case Report Forms (eCRF). Patients are asked to volunteer information concerning AEs with non-leading question such as “How do you feel?” AEs are collected at Visit 2 and all subsequent visits including early termination.
Dosing: For the single-blind lead-in period, patients are supplied with placebo capsules. For the double-blind period, identical appearing capsules are supplied which contain placebo, escitalopram 4 mg, or bupropion extended-release 150 mg. Medication are supplied in blister cards, each containing 20 capsules arranged in two rows of 10 capsules.
All study medication is administered as a single daily dose throughout the study, preferably at the same time each evening starting on the day the medication is dispensed to the patient. Dosing is subsequently be switched to morning, if preferred. At each visit, patients are instructed to take 2 capsules daily, one from Row 1 and one from Row 2. Patients are instructed to return all unused medication at each study visit. Patients who meet eligibility criteria at Visit 1 are dispensed one blister card containing 20 placebo capsules. Patients are instructed to take two capsules daily as a single dose beginning on the day study medication is dispensed. Patients who meet all eligibility criteria at Visit 2 are assigned a randomization number and dispensed the corresponding blister card for Week 1 of treatment as shown in the Figure below:
Patients are assigned the lowest randomization number available at the site. Patients are instructed to take two capsules daily as a single dose beginning on the day study medication is dispensed. In accordance with their assigned treatment group, patients receive placebo, 4 mg escitalopram, 150 mg bupropion, or 4 mg escitalopram and 150 mg bupropion per day.
At Visit 3, patients are dispensed one blister card for Week 2 of treatment. At Visits 4, 5, and 6, patients are dispensed two blister cards for Weeks 3-4, 5-6, and 7-8 of treatment, respectively. Patients are instructed to continue taking two capsules daily as a single dose. In accordance with their assigned treatment group, patients receive placebo, 4 mg escitalopram, 150 bupropion, or 4 mg escitalopram and 150 mg bupropion per day.

In the case of `CC(NC(C)(C)C)C(=O)c1cccc(Cl)c1` (racemic) [bupropion, (±)-1-(3-chlorophenyl)-2-[(1,1-dimethylethyl)amino]-1-propanone], the “Early Discontinuation: AEs” value is reported as 10 (7.5%), the “Early Discontinuation: All Reasons” value is reported as 29 (21.6%) and the “Early Discontinuation: Insufficient Response” value is reported as 4 (3.0%). For the same compound, the “Incidence of TEAEs: Pts with at least 1 TEAE” value was 101 (75.4%), the “Selected TEAEs: anorexia” value was 0% and the “Selected TEAEs: completed suicide*” value was 0%. For the same compound, the “Selected TEAEs: constipation” value was 6 (4.5%), the “Selected TEAEs: decreased appetite” value was 5 (3.7%) and the “Selected TEAEs: diarrhea” value was 5 (3.7%). For the same compound, the “Selected TEAEs: dizziness” value was 2 (1.5%), the “Selected TEAEs: dry mouth” value was 13 (9.7%) and the “Selected TEAEs: early morn awakening” value was 2 (1.5%). The “Selected TEAEs: ejaculation delayed” value was 0%, the “Selected TEAEs: erectile dysfunction” value was 0% and the “Selected TEAEs: hypersomnia” value was 0%. For the same compound, the “Selected TEAEs: increased appetite” value was 3 (2.2%), the “Selected TEAEs: initial insomnia” value was 1 (0.7%) and the “Selected TEAEs: insomnia” value was 14 (10.4%). For the same compound, the “Selected TEAEs: intentional self-injury” value was 0%, the “Selected TEAEs: lethargy” value was 2 (1.5%) and the “Selected TEAEs: libido decreased” value was 1 (0.7%). The “Selected TEAEs: libido increased” value was 0%, the “Selected TEAEs: middle insomnia” value was 3 (2.2%) and the “Selected TEAEs: nausea” value was 5 (3.7%). The “Selected TEAEs: orgasm abnormal” value was 0%, the “Selected TEAEs: sedation” value was 1 (0.7%) and the “Selected TEAEs: sleep disorder” value was 2 (1.5%). The “Selected TEAEs: somnolence” value was 2 (1.5%), the “Selected TEAEs: suicidal ideation” value was 1 (0.7%) and the “Selected TEAEs: vomiting” value was 0%. The “Selected TEAEs: weight decreased” value was 4 (3.0%), the “Selected TEAEs: weight increased” value was 0% and the “patients discontinued treatment early” value was 21.6%. For the same compound, the “patients exhibited at least one Treatment Emergent Adverse Event (TEAE)” value was 75.4%.
In the case of `CN(C)CCC[C@@]1(c2ccc(F)cc2)OCc2cc(C#N)ccc21` [escitalopram, 1-[3-(dimethyl-amino)propyl]-1-(p-fluorophenyl)-5-phthalancarbonitrile], the “Early Discontinuation: AEs” value is reported as 5 (3.8%), the “Early Discontinuation: All Reasons” value is reported as 24 (18.3%) and the “Early Discontinuation: Insufficient Response” value is reported as 0%. For the same compound, the “Incidence of TEAEs: Pts with at least 1 TEAE” value was 86 (65.6%), the “Selected TEAEs: anorexia” value was 1 (0.8%) and the “Selected TEAEs: completed suicide*” value was 0%. For the same compound, the “Selected TEAEs: constipation” value was 3 (2.3%), the “Selected TEAEs: decreased appetite” value was 2 (1.5%) and the “Selected TEAEs: diarrhea” value was 6 (4.6%). For the same compound, the “Selected TEAEs: dizziness” value was 3 (2.3%), the “Selected TEAEs: dry mouth” value was 11 (8.4%) and the “Selected TEAEs: early morn awakening” value was 1 (0.8%). The “Selected TEAEs: ejaculation delayed” value was 2 (3.9%), the “Selected TEAEs: erectile dysfunction” value was 0% and the “Selected TEAEs: hypersomnia” value was 0%. For the same compound, the “Selected TEAEs: increased appetite” value was 1 (0.8%), the “Selected TEAEs: initial insomnia” value was 0% and the “Selected TEAEs: insomnia” value was 5 (3.8%). For the same compound, the “Selected TEAEs: intentional self-injury” value was 0%, the “Selected TEAEs: lethargy” value was 0% and the “Selected TEAEs: libido decreased” value was 3 (2.3%). For the same compound, the “Selected TEAEs: libido increased” value was 0%, the “Selected TEAEs: middle insomnia” value was 0% and the “Selected TEAEs: nausea” value was 10 (7.6%). The “Selected TEAEs: orgasm abnormal” value was 0%, the “Selected TEAEs: sedation” value was 1 (0.8%) and the “Selected TEAEs: sleep disorder” value was 0%. For the same compound, the “Selected TEAEs: somnolence” value was 4 (3.1%), the “Selected TEAEs: suicidal ideation” value was 0% and the “Selected TEAEs: vomiting” value was 2 (1.5%). The “Selected TEAEs: weight decreased” value was 0%, the “Selected TEAEs: weight increased” value was 3 (2.3%) and the “patients discontinued treatment early” value was 18.3%. For the same compound, the “patients exhibited at least one Treatment Emergent Adverse Event (TEAE)” value was 65.6%.
